Source: patent US20160151337A1, “ANNELATED PYRROLES AND THEIR USE AS CRAC INHIBITORS” (Grünenthal GmbH, priority 2013, published 2016)

Columns and labels:
CRAC channel = target: T1, CRAC channel (Homo sapiens, UniProt Q96D31); test: HEK Calcium Influx Assay (FLIPR), inhibition of store-operated Ca2+ entry after thapsigargin store depletion; assay type: cell-based; conditions: 10 μM compound, HEK293 cells, read-out: % inhib. [@ 10 μM] FLIPR
T1 construct: endogenous in cells; host or cells: HEK293 (ECACC), untransfected
Method: The effect of compounds of the invention on intracellular [Ca^2+] was tested in the HEK293 cell line (ECACC).
HEK293 cells were cultured in DMEM/F12/Glutamax (Gibco) containing 10% FCS (Gibco), and maintained at 37° C., 5% CO2. Cell were split twice a week [3*10^6 (Mon-Thu) and 1*10^6 (Thu-Mon) cells/50 ml medium in 1-175 ZK culture flasks, respectively]. Twenty four hours pre-experiment, cells were seeded on 96 well plates (Poly-D-Lysine 96 well Black/Clear Plate, BD Biocoat REF 356640) at a density of 40,000 cells/well in DMEM/F12 (Gibco) containing 10% FCS (Gibco), and maintained at 37° C., 5% CO2.
Prior to store-depletion, cell culture medium was removed and cells were loaded with the Calcium-sensitive fluorescent dye comprised within the Calcium-4-assay kit (Molecular Devices) in nominally Ca^2+-free HBS buffer (140 mM NaCl, 4 mM KCl, 0.2 mM MgCl2, 11 mM D-glucose, and 10 mM HEPES, pH 7.4) according to manufacturer's instruction for 60 min at 37° C., 5% CO2.
Passive depletion of intracellular Ca^2+-stores was then triggered by employing the SERCA inhibitor thapsigargin (2 μM final) for 10 min in the dark (RT). To prevent immediate Ca^2+-entry via the activated store-operated channels (SOCs), cells were maintained in Ca^2+-free HBS buffer comprising 100 μM EGTA during store-depletion.
Intracellular changes in [Ca^2+] were subsequently monitored with the FLIPR device (Molecular Devices). In brief, baseline imaging post-store depletion was allowed for 1 min before adjusting the extracellular buffer to 3 mM CaCl2. Increases in intracellular [Ca^2+] due to pre-activated SOC channels were monitored for 15 min until intracellular Ca^2+ levels had declined into a steady-state. Finally, compounds were administered, and Ca^2+ signals were recorded for additional 10 min.
Inhibition of endogenous SOC in HEK293 cells was quantified employing the average Ca^2+ signal measured from 9.5-10 min post-administration. Zero percent inhibition (MAX) was defined as the Ca^2+ signal recorded from wells to which DMSO-only had been added instead of compound. Hundred percent inhibition (MIN) was defined as the signal obtained from wells in which cells haven't been treated with TG prior to Ca^2+ addition and to which DMSO-only had been added instead of compound. For routine IC50 determinations of compounds, 8 concentrations of a serial dilution (1:3.16) were tested, starting off from 10 μM. Reliable IC50's could consequently be determined only, if they were at least sub 2.5-3 μM.

[1] = system: Interleukin-2 (IL-2) production/release in Jurkat T cells; test: Jurkat IL-2 Production Assay (PHA-stimulated, IL-2 AlphaLisa); assay type: cell-based; conditions: Homo sapiens, PHA 15 μg/ml, 22 h, inhibition of IL-2 production
Method: The effect of compounds of the invention on Interleukin-2 (IL-2) production/release was tested in the Jurkat T cell line (ECACC) clone E6-1.
Jurkat T cells were cultured in DMEM/F12/Glutamax (Gibco) containing 10% FCS (Gibco), and maintained at 37° C., 5% CO2. Cells were split twice a week [5*10^6 (Mon-Thu) and 1*10^7 (Thu-Mon) cells/50 ml medium in 1-175 ZK culture flasks, respectively].
Prior to experiment, cells were seeded on 96 well plates (Cellstar 96 Well; Cat No. 655180, Greiner bio-one) at a density of 5*10^5 cells/well in DMEM/F12/Glutamax (Gibco) containing 10% FCS (Gibco), and incubated for 60 min at 37° C., 5% CO2. Subsequently, compounds were added and cells were allowed to incubate for 30 min at 37° C., 5% CO2. Cells were then stimulated with 15 μg/ml Phyto-hemagglutinin (PHA; Sigma) for 22 hours at 37° C., 5% CO2.
Before sampling of the supernatants, cells were spun down (200*g/5 min/RT). The amount of IL-2 released into the supernatant was quantified with the human IL-2 AlphaLisa kit (Perkin Elmer) according to manufacturer's instructions. Luminescence proximity measurements were carried out in the Synergy H4 reader (BioTek) employing the fluorescence setting of the reader (ex: 680/30 nm; em: 620/40 nm).
Inhibition of IL-2 production/release in/from Jurkat T cells was quantified as follows: Zero percent inhibition (MAX) was defined as the [IL-2] determined in supernatants derived from cells to which PHA & DMSO-only had been added instead of compound. Hundred percent inhibition (MIN) was defined as the [IL-2] determined in supernatants derived from cells that had been pre-treated with 1 μM CyclosporineA (Sigma) before the addition of 15 μg/ml PHA.
For routine IC50 determinations of compounds, 8 concentrations of a serial dilution (1:3.16) were tested, starting off from 10 μM.

T1 sequence (Q96D31 whole entry): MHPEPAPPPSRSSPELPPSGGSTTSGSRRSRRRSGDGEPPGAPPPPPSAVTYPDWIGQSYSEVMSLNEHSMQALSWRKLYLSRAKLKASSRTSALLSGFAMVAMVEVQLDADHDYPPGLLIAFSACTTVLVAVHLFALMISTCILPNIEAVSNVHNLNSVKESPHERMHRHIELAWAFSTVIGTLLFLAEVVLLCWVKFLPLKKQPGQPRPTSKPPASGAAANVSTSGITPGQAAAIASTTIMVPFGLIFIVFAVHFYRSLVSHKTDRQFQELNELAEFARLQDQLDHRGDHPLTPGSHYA

SMILES	inhibition at 10 µM (CRAC channel)	IC50 [1]
CCOc1cc(C(F)(F)F)ncc1N1CCc2[nH]c(-c3c(F)cccc3F)cc2C1 [Example 116, 2-(2,6-Difluoro-phenyl)-5-[4-ethoxy-6-(trifluoromethyl)-pyridin-3-yl]-4,5,6,7-tetrahydro-1H-pyrrolo[3,2-c]pyridine]	> 70%	< 0.5 µM
Cc1cc(CS(C)(=O)=O)ncc1N1CCc2[nH]c(-c3c(F)cccc3F)cc2C1 [Example 104, 2-(2,6-Difluoro-phenyl)-5-[4-methyl-6-(methylsulfonyl-methyl)-pyridin-3-yl]-4,5,6,7-tetrahydro-1H-pyrrolo[3,2-c]pyridine]	> 70%	1 to 5 µM
Cc1cc(S(C)(=O)=O)ncc1N1CCc2[nH]c(C3CCC(F)(F)CC3)cc2C1 [Example 122, 2-(4,4-Difluoro-cyclohexyl)-5-(4-methyl-6-methylsulfonyl-pyridin-3-yl)-4,5,6,7-tetrahydro-1H-pyrrolo[3,2-c]pyridine]	50 to 70%	1 to 5 µM
CCn1nc(C2CC2)cc1N1CCc2[nH]c(-c3c(F)cccc3F)cc2C1 [Example 126, 5-(5-Cyclopropyl-2-ethyl-2H-pyrazol-3-yl)-2-(2,6-difluoro-phenyl)-4,5,6,7-tetrahydro-1H-pyrrolo[3,2-c]pyridine]	> 70%	0.5 to 1 µM
Cc1cc(N(C)S(C)(=O)=O)ccc1N1CCc2[nH]c(-c3c(F)cccc3F)cc2C1 [Example 132, N-[4-[2-(2,6-Difluoro-phenyl)-4,5,6,7-tetrahydro-1H-pyrrolo[3,2-c]pyridin-5-yl]-3-methyl-phenyl]-N-methyl-methanesulfonic acid amide]	< 50%	1 to 5 µM
Cc1cc(C(F)(F)F)ncc1N1CCc2[nH]c(C3CCCCC3)cc2C1 [Example 97, 2-Cyclohexyl-5-[4-methyl-6-(trifluoromethyl)-pyridin-3-yl]-4,5,6,7-tetrahydro-1H-pyrrolo[3,2-c]pyridine]	50 to 70%	1 to 5 µM
Cc1cc(S(C)(=O)=O)ncc1N1CCc2[nH]c(-c3ccccc3F)cc2C1 [Example 79, 2-(2-Fluorophenyl)-5-(4-methyl-6-methylsulfonyl-pyridin-3-yl)-4,5,6,7-tetrahydro-1H-pyrrolo[3,2-c]pyridine]	> 70%	0.5 to 1 µM
Cc1sc(-c2cncnc2)nc1N1CCc2[nH]c(-c3c(F)cccc3F)cc2C1 [Example 30, 4-[2-(2,6-Difluoro-phenyl)-4,5,6,7-tetrahydro-1H-pyrrolo[3,2-c]pyridin-5-yl]-5-methyl-2-pyrimidin-5-yl-thiazole]	> 70%	0.5 to 1 µM
COC1(c2cc(N3CCc4[nH]c(-c5c(F)cccc5F)cc4C3)n(C)n2)CC1 [Example 137, 2-(2,6-Difluoro-phenyl)-5-[5-(1-methoxy-cyclopropyl)-2-methyl-2H-pyrazol-3-yl]-4,5,6,7-tetrahydro-1H-pyrrolo[3,2-c]pyridine]	> 70%	1 to 5 µM
Cn1nc(C(F)(F)F)cc1N1CCc2[nH]c(-c3c(F)cccc3F)cc2C1 [Example 19, 2-(2,6-Difluoro-phenyl)-5-[2-methyl-5-(trifluoromethyl)-2H-pyrazol-3-yl]-4,5,6,7-tetrahydro-1H-pyrrolo[3,2-c]pyridine]	> 70%	< 0.5 µM
Cc1cc(C#N)cnc1N1CCc2[nH]c(C3CCCCC3)cc2C1 [Example 102, 6-(2-Cyclohexyl-4,5,6,7-tetrahydro-1H-pyrrolo[3,2-c]pyridin-5-yl)-5-methyl-nicotinonitrile]	> 70%	0.5 to 1 µM
Cc1cc(S(C)(=O)=O)c(F)cc1N1CCc2[nH]c(C3CCCCC3)cc2C1 [Example 110, 2-Cyclohexyl-5-(5-fluoro-2-methyl-4-methylsulfonyl-phenyl)-4,5,6,7-tetrahydro-1H-pyrrolo[3,2-c]pyridine]	< 50%	1 to 5 µM
Cc1sc(-c2ccn(C)n2)nc1N1CCc2[nH]c(-c3c(F)cccc3F)cc2C1 [Example 99, 4-[2-(2,6-Difluoro-phenyl)-4,5,6,7-tetrahydro-1H-pyrrolo[3,2-c]pyridin-5-yl]-5-methyl-2-(1-methyl-1H-pyrazol-3-yl)-thiazole]	> 70%	< 0.5 µM
Cc1sc(S(C)(=O)=O)nc1N1CCc2[nH]c(-c3c(F)cccc3F)cc2C1 [Example 133, 4-[2-(2,6-Difluoro-phenyl)-4,5,6,7-tetrahydro-1H-pyrrolo[3,2-c]pyridin-5-yl]-5-methyl-2-methylsulfonyl-thiazole]	> 70%	0.5 to 1 µM
Cc1cc(S(C)(=O)=O)ncc1N1CCc2[nH]c(C3CCCOC3)cc2C1 (stereo not drawn) [Example 115, 5-(4-Methyl-6-methylsulfonyl-pyridin-3-yl)-2-tetrahydro-pyran-3-yl-4,5,6,7-tetrahydro-1H-pyrrolo[3,2-c]pyridine]	< 50%	1 to 5 µM
Cc1cc(C(F)(F)F)ncc1N1CCc2[nH]c(C3CCOCC3)cc2C1 [Example 93, 5-[4-Methyl-6-(trifluoromethyl)-pyridin-3-yl]-2-tetrahydro-pyran-4-yl-4,5,6,7-tetrahydro-1H-pyrrolo[3,2-c]pyridine]	> 70%	1 to 5 µM
Cc1ccccc1N1CCc2[nH]c(-c3c(F)cccc3F)cc2C1 [Example 22, 2-(2,6-Difluoro-phenyl)-5-o-tolyl-4,5,6,7-tetrahydro-1H-pyrrolo[3,2-c]pyridine]	> 70%	1 to 5 µM
Cc1sc(-c2cccnc2)nc1N1CCc2[nH]c(-c3c(F)cccc3F)cc2C1=O [Example 1, 2-(2,6-Difluoro-phenyl)-5-(5-methyl-2-pyridin-3-yl-thiazol-4-yl)-1,5,6,7-tetrahydro-pyrrolo[3,2-c]pyridin-4-one]	50 to 70%	1 to 5 µM
Fc1cccc(F)c1-c1cc2c([nH]1)CCN(c1cc3c(cc1Cl)OC(F)(F)O3)C2 [Example 9, 5-(6-Chloro-2,2-difluoro-1,3-benzodioxol-5-yl)-2-(2,6-difluoro-phenyl)-4,5,6,7-tetrahydro-1H-pyrrolo[3,2-c]pyridine]	< 50%	1 to 5 µM
CCNS(=O)(=O)c1ccc(N2CCc3[nH]c(-c4c(F)cccc4F)cc3C2)c(C)c1 [Example 131, 4-[2-(2,6-Difluoro-phenyl)-4,5,6,7-tetrahydro-1H-pyrrolo[3,2-c]pyridin-5-yl]-N-ethyl-3-methyl-benzenesulfonic acid amide]	< 50%	1 to 5 µM
CCOc1cc(C(F)(F)F)c(N2CCc3[nH]c(-c4c(F)cccc4F)cc3C2)cn1 [Example 100, 2-(2,6-Difluoro-phenyl)-5-[6-ethoxy-4-(trifluoromethyl)-pyridin-3-yl]-4,5,6,7-tetrahydro-1H-pyrrolo[3,2-c]pyridine]	< 50%	1 to 5 µM
